According to ChEMBL document CHEMBL5465560, “Selectivity Literature for EUbOPEN Chemogenomic Library” (2024):
Where a chain is given by its changes, count along the chain named.

Key:
Details in all cases: at 1 µM
[1] = system: T1, Receptor-type tyrosine-protein kinase FLT3 (Homo sapiens), P36888 [D835V]; experiment: (§1) Selectivity interaction (KinomeScan (DiscoverX)) EUB0001079a FLT3
T1 sequence (whole entry): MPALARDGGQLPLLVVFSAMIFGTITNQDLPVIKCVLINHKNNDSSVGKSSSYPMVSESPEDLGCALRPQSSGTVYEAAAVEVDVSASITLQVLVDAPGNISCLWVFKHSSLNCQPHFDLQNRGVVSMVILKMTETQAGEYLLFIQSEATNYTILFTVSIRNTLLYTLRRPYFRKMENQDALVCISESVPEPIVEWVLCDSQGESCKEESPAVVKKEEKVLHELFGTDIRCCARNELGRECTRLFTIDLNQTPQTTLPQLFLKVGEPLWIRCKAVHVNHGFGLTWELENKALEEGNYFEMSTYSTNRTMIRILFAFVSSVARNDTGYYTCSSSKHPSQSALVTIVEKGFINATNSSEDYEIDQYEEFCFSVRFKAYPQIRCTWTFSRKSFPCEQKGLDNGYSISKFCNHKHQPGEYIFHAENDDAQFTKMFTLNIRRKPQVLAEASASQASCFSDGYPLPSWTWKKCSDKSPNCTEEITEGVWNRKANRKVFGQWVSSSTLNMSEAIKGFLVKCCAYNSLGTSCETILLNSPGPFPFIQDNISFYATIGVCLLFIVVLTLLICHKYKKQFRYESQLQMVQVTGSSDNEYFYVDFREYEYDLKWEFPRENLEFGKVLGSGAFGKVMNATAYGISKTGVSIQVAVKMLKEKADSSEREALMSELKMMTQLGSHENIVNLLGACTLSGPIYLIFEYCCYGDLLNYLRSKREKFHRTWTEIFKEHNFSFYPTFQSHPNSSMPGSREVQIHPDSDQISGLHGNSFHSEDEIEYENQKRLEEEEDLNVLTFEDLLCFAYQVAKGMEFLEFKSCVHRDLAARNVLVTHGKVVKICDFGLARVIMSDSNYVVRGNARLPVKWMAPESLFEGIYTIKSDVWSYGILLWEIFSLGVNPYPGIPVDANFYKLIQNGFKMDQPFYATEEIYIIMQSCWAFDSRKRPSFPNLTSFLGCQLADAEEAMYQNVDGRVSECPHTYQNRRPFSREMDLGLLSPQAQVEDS

[2] = system: T2, Receptor-type tyrosine-protein kinase FLT3 (Homo sapiens), P36888 [N841I]; experiment: as §1
T2 sequence (whole entry): T1 sequence (whole entry) with V835D, N841I

[3] = system: T3, Receptor-type tyrosine-protein kinase FLT3 (Homo sapiens), P36888 [D835H]; experiment: as §1
T3 sequence (whole entry): T1 sequence (whole entry) with V835H

SMILES: Nc1cnc(N2CCc3cc(S(=O)(=O)Nc4c(F)cc(Cl)cc4F)cc(N4CCCC4=O)c32)nc1 [TP-020n]
- % of control [1]: 100%
- % of control [2]: 89%
- % of control [3]: 100%
